Values quoted from earlier work as cited in patent US7612060B2, “Triazoles and methods of use” (Amgen Inc., priority 2004, dated 2009).
Where no end group is shown, it is not given here.

Conditions: reported

## RPPGFSPFR [BK, Bradykinin]
  half-life of BK in plasma: approximately 17 seconds
